The test system of this experiment is MtlA. As to the kind of experiment: Global proteome analysis of sublethally treated cells. Format: cell-based, Staphylococcus aureus. The note with it: Mu50 cells, sublethal concentration allowing ca. 50% residual growth. As to the method: After in-solution digestion (ISD) peptides were desalted on home-made C18 StageTips (Rappsilber et al. [2007]). Briefly, the peptide solution was passed over the MeOH pre-conditioned and 0.5% formic acid (FA) equilibrated StageTip. Immobilised peptides were then washed twice with 0.5% (v/v) FA. Washed peptides were eluted from the StageTips with 80% (v/v) ACN and 0.5% (v/v) FA and dried using a vacuum concentrator (Eppendorf). Before LC-MS, peptide samples were resuspended in 10 μL 0.1% (v/v) FA.
LC-MS/MS experiments were performed on an Orbitrap Elite instrument (Michalski et al. [2012]) (Thermo) that was coupled to an EASY-nLC 1000 liquid chromatography (LC) system (Thermo). […] Product ion spectra were recorded in a data-dependent fashion in the ion trap (ITMS) in a variable scan range and at a rapid scan rate. […] Peptides were analysed using a repeating cycle consisting of a full precursor ion scan (1.0 × 10^6 ions or 50 ms) followed by 15 product ion scans (1.0 × 10^4 ions or 100 ms), where peptides are isolated based on their intensity in the full survey scan (threshold of 500 counts) for tandem mass spectrum (MS2) generation that permits peptide sequencing and identification. […]
RAW spectra were submitted to an Andromeda (Cox et al. [2011]) search in MaxQuant (version 1.5.3.30) using the default settings (Cox and Mann [2008]). Label-free quantification was activated (Cox et al. [2014]). […]

As to `Oc1c(Br)cc(Br)c(Br)c1Oc1ccc(Br)cc1Br` [3-bromo-PP, 3,4,6-tribromo-2-(2′,4′-dibromophenoxy)phenol], the “downregulation of MtlA protein” value is on record as “approx. 2.5 fold”.

Source of the values: article PMC8217011, “Natural brominated phenoxyphenols kill persistent and biofilm-incorporated cells of MRSA and other pathogenic bacteria” (Applied Microbiology and Biotechnology, 2020).
